Here are results for five compounds from US20170008921A1, “C-3 NOVEL TRITERPENONE WITH C-28 REVERSE AMIDE DERIVATIVES AS HIV INHIBITORS” (HETERO RESEARCH FOUNDATION, priority 2015, published 2017).

The test system of data set [1] is cells. The data set is described as follows: Cyto-toxicity (MTT assay). It counts as cell-based.
The subject of data set [2] is HIV-1 strain 92HT599. Description: Antiviral activity against HIV-1 strain 92HT599 in MT2 cells (p24 estimation). It is filed as cell-based. To be noted: HIV-1 92HT599, ~96 hours. As to the method:
MT2 cells were infected with HIV-1 strain 92HT599 (10 TCID 50/30000 cells). The infected cells were plated at the concentration of ˜30,000 cells per well in 96 well plate. Test compound was added to the micro plate in defined format with the final concentration of DMSO (vehicle) is not more than 1%. Incubation was carried out in CO2 incubator for ˜96 hours for viral infection. At the end of incubation period an aliquot from each well was taken for p24 estimation. The quantitation of p24 is an index for antiviral activity of the compound. Percent inhibition was calculated with reference to control values (vehicle controls). p24 estimation was carried out using Advance biosciences kit as per the procedure detailed by supplier.

In data set [3] the test system is pNL4-3 V7A. The data set is described as follows: Antiviral activity against pNL4-3 V7A strain in MT4 cells (p24 estimation). It counts as cell-based, HIV-1. To be noted: 4 days. As to the method: (§1) MT4 cells were Transfected with HIV-1 Plasmid (pNL4-3-WT & V7A) (Cells were incubating with required number of TCID50 of HIV-1 for 1.5 h at 37° C.). After infection, the infected cells were plated at the concentration of 3×10^4 cells per well in 96 well plate. Test compound was added to the test plate in defined format with the final concentration of DMSO is not more than 1%. Incubation was carried out in CO2 incubator for 4 days for viral infection. At the end of incubation period an aliquot from each well was taken for p24 estimation. p24 estimation was carried out using Advance biosciences kit as per the procedure detailed by supplier.

Data set [4] in a line: Single dose oral pharmacokinetic study. It is filed as in vivo. Particulars: Mice oral PK @30 mg/kg, plasma, vehicle 10% Solutol+20% PEG. In short, it runs like this: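 Rats or mice dosed orally at 30 mg/kg in 10% Solutol+20% PEG. Acetonitrile precipitation, then LC-MS/MS quantification for PK parameters.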
In data set [5] the test system is pNL4-3 WT. Description: Antiviral activity against pNL4-3 WT strain in MT4 cells (p24 estimation). It counts as cell-based, HIV-1. Particulars: 4 days. On the procedure:
as §1

Data set [6] in a line: Cyto-toxicity (MTT assay). It is filed as cell-based.
Where [7] appears, read: 0% serum binding assay, read-out: IC50 0% serum.
[8] abbreviates: 40% serum binding assay, read-out: IC50 40% serum.

Where two headings read alike, the source gives them in different places.

Take `CC(C)C1=C2[C@H]3CC[C@@H]4[C@@]5(C)CC[C@H](OC(=O)[C@H]6C[C@@H](C(=O)O)C6(C)C)C(C)(C)[C@@H]5CC[C@@]4(C)[C@]3(C)CC[C@@]2(NC(=O)C(C)(C)NS(=O)(=O)c2ccc(Cl)cc2)CC1=O` [Example 65, (1R,3S)-3-((((3aR,5aR,5bR,7aR,9S,11aR,11bR,13aS)-3a-(2-((4-chlorophenyl)sulfonamido)-2-methylpropanamido)-1-isopropyl-5a,5b,8,8,11a-pentamethyl-2-oxo-3,3a,4,5,5a,5b,6,7,7a,8,91,111,11a,11b,12,13,13a-octadecahydro-2H-cyclopenta[a]chrysen-9-yl)oxy)carbonyl)-2,2-dimethylcyclobutane-1-carboxylic acid]: the Cytotoxicity % viability in data set [1] (0.01 μM, MTT, 4 days (Table 3)) amounted to 27%; in data set [1] (0.1 μM, MTT, 4 days (Table 3)) it was 3%; in data set [1] (1 μM, MTT, 4 days (Table 3)), 2%. The IC50 in data set [2] (setting [7]) was below 3 nM; in data set [2] (setting [8]) it was below 50 nM; in data set [3], above 50 nM; in data set [5], above 10 nM. The AUC(0-t) in data set [4] is 145.21 µg·h/mL. The same compound gave a maximum concentration (Cmax) in data set [4] of 7383 ng/mL.
As to `Cc1ccc(NC(=O)NC(C)(C)C(=O)N[C@@]23CC[C@]4(C)[C@H](CC[C@@H]5[C@@]6(C)CC[C@H](OC(=O)[C@H]7C[C@@H](C(=O)O)C7(C)C)C(C)(C)[C@@H]6CC[C@]54C)C2=C(C(C)C)C(=O)C3)cn1` [Example 71, (1R,3S)-3-((((3aR,5aR,5bR,7aR,9S,11aR,11bR,13aS)-1-isopropyl-5a,5b,8,811a-pentamethyl-3a-(2-methyl-2-(3-(6-methylpyridin-3-yl)ureido)propanamido)-2-oxo-3,3a,4,5,5a,5b,6,7,7a,8,9,10,11,11a,11b,12,13,13a-octadecahydro-2H-cyclopenta[a]chrysen-9-yl)oxy)carbonyl)-2,2-dimethylcyclobutane-1-carboxylic acid], in data set [6], the viability at 4 days, 0.01 µM was determined as 41%; the viability at 4 days, 0.1 µM is 5%; the viability at 4 days, 1 µM came out at 3%. In data set [4] (mouse, read-out: AUC0-t), the AUC(0-t) turned out to be 130 µg·h/mL. Also, in data set [4] (mouse, read-out: Cmax), the peak concentration (Cmax) worked out at 19300 ng/mL.
As to `Cc1cccc(NC(=O)NC(C)(C)C(=O)N[C@@]23CC[C@]4(C)[C@H](CC[C@@H]5[C@@]6(C)CC[C@H](OC(=O)[C@H]7C[C@@H](C(=O)O)C7(C)C)C(C)(C)[C@@H]6CC[C@]54C)C2=C(C(C)C)C(=O)C3)n1` [Example 72, (1R,3S)-3-((((3aR,5aR,5bR,7aR,9S,11aR,11bR,13aS)-1-isopropyl-5a,5b,8,8,11a-pentamethyl-3a-(2-methyl-2-(3-(6-methylpyridin-2-yl)ureido)propanamido)-2-oxo-3,3a,4,5,5a,5b,6,7,7a,8,9,10,11,11a,11b,12,13,13a-octadecahydro-2H-cyclopenta[a]chrysen-9-yl)oxy)carbonyl)-2,2-dimethylcyclobutane-1-carboxylic acid], in data set [6], the viability at 4 days, 0.001 µM was 98%; the viability at 4 days, 0.003 µM worked out at 84%; the viability at 4 days, 0.01 µM came to 27%. Further, in data set [4] (mouse, read-out: AUC0-t), the AUC(0-t) turned out to be 192 µg·h/mL. For the same compound, the highest concentration (Cmax) in data set [4] (mouse, read-out: Cmax) stood at 15300 ng/mL.
For `CC(C)C1=C2[C@H]3CC[C@@H]4[C@@]5(C)CC[C@H](OC(=O)[C@H]6C[C@@H](C(=O)O)C6(C)C)C(C)(C)[C@@H]5CC[C@@]4(C)[C@]3(C)CC[C@@]2(NC(=O)C(C)(C)N)CC1=O.Cl` [Example 74, (1R,3S)-3-((((3aR,5aR,5bR,7aR,9S,11aR,11bR,13aS)-3a-(2-amino-2-methylpropanamido)-1-isopropyl-5a,5b,8,8,11a-pentamethyl-2-oxo-3,3a,4,5,5a,5b, 6,7,7a,8,9,10,1111a,11b,12,13,13a-octadecahydro-2H-cyclopenta[a]chrysen-9-yl)oxy)carbonyl)-2,2-dimethylcyclobutane-1-carboxylic acid hydrochloride], the Cytotoxicity % viability stood at 61% in data set [1] (0.01 µM), 14% in data set [1] (0.1 µM) and 19% in data set [1] (1 µM). Further, the IC50 was below 3 nM in data set [2] (setting [7]) and below 50 nM in data set [2] (setting [8]).
On to `CC(C)C1=C2[C@H]3CC[C@@H]4[C@@]5(C)CC[C@H](OC(=O)[C@H]6C[C@@H](C(=O)O)C6(C)C)C(C)(C)[C@@H]5CC[C@@]4(C)[C@]3(C)CC[C@@]2(NC(=O)C(C)(C)NC(=O)[C@@H]2CCCN2)CC1=O.Cl` [Example 76, (1R,3S)-3-((((3aR,5aR,5bR,7aR,9S,11aR,11bR,13aS)-1-isopropyl-5a,5b,8,8,11a-pentamethyl-3a-(2-methyl-2-((S)-pyrrolidine-2-carboxamido)propanamido)-2-oxo-3,3a,4,5,5a,5b,6,77a,8,9,10,11,11a,11b,12,13,13a-octadecahydro-2H-cyclopenta[a]chrysen-9-yl)oxy)carbonyl)-2,2-dimethylcyclobutane-1-carboxylic acid hydrochloride], for which the Cytotoxicity % viability in data set [1] (0.01 µM) came out at 59%; in data set [1] (0.1 µM) it was 6%; in data set [1] (1 µM), 6%. The results for the half-inhibitory concentration (IC50) in data set [2] (setting [7]) and in data set [2] (setting [8]) were below 3 nM and 50 to 200 nM, respectively.
